In patent publication US9216999B2, “Substituted pyrrolo[2,3-h][1,6]naphthyridines and compositions thereof as JAK inhibitors” (priority 2011, dated 2015):
Where two headings read alike, the source gives them in different places.

Experiments:
Assay type in all cases: biochemical
Tyk2 = Tyk2 (Homo sapiens (Human), UniProt P29597); assay: Enzyme assay (Assay Example^a 1), Tyk2; settings: ATP 100 μM
JAK1 = JAK1 (Homo sapiens (Human), UniProt P23458); assay: Enzyme assay (Assay Example^a 1), JAK1; settings: ATP 100 μM
JAK2 = JAK2 (Homo sapiens (Human), UniProt O60674); assay: Enzyme assay (Assay Example^a 1), JAK2; settings: ATP 100 μM
JAK3 = JAK3 (Homo sapiens (Human), UniProt P52333); assay: Enzyme assay (Assay Example^a 1), JAK3
Sequence of JAK3 (P52333 whole entry): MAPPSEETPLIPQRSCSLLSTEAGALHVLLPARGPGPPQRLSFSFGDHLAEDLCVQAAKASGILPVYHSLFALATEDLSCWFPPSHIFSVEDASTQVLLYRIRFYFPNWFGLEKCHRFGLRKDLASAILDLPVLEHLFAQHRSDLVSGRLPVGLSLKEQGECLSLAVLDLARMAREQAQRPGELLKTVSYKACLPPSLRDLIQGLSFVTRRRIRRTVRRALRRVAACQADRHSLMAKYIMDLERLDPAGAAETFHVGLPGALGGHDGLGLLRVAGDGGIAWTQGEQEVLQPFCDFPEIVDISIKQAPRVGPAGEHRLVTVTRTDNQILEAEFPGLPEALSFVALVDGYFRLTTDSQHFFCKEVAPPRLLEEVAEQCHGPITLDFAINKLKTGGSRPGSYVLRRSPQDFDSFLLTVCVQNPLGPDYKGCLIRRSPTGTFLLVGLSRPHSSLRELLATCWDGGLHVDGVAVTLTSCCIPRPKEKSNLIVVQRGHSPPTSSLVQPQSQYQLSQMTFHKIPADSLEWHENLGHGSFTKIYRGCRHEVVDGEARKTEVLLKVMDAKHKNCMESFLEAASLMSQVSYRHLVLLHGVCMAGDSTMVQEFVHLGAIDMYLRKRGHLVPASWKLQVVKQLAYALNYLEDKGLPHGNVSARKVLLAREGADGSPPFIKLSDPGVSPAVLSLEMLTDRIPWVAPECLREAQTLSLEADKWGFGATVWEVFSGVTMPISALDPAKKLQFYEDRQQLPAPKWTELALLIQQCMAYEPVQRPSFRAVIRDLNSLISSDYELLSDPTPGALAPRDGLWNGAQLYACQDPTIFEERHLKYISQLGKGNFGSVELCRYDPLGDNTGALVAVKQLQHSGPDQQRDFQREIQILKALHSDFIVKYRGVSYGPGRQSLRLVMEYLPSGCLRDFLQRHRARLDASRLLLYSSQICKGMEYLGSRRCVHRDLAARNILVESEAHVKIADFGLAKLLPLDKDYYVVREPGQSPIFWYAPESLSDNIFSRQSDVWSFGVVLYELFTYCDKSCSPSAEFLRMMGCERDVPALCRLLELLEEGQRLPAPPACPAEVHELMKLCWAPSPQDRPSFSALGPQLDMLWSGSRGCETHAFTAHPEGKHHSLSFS

Sequence of Tyk2 (P29597 whole entry): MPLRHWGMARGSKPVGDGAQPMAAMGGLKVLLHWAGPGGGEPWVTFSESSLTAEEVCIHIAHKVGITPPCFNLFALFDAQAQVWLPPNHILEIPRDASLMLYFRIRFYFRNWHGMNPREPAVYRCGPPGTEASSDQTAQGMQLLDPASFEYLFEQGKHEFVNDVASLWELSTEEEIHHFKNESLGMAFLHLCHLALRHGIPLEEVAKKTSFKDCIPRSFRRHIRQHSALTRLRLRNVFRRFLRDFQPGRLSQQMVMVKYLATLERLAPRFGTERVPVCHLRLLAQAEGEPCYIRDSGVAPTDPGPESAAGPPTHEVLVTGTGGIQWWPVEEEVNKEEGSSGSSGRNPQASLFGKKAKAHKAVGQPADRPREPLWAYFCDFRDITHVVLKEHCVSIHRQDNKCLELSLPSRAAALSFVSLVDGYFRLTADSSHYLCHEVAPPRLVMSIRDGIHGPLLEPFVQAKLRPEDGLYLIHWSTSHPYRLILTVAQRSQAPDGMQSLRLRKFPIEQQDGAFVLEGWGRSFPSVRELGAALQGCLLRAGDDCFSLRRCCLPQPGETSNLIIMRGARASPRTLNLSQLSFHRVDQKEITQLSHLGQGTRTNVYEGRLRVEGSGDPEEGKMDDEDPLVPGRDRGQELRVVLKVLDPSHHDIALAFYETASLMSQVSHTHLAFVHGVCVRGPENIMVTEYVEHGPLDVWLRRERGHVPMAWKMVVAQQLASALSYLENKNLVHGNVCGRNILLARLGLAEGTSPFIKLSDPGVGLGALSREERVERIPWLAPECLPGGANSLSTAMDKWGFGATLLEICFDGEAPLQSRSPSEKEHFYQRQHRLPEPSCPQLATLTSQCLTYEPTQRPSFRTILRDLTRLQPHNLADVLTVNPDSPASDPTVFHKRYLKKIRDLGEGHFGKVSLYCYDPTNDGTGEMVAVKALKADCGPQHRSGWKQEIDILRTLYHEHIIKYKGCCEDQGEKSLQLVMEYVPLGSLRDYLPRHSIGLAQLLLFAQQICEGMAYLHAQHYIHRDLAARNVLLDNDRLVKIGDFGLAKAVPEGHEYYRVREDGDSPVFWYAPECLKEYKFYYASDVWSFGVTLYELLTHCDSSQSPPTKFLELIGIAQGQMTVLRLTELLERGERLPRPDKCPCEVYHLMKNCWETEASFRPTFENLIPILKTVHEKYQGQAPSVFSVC

Row | Compound | IC50 (Tyk2) [µM] | IC50 (JAK1) [µM] | IC50 (JAK2) [µM] | IC50 (JAK3; ATP 100 μM) [µM] | IC50 (JAK3) [µM]
1 | O=C1CN(C[C@H]2CC[C@H](c3nnn4cnc5[nH]ccc5c34)CC2)CCN1 [compound 260, 4-{[trans-4-(7H-pyrrolo[3,2-e][1,2,3]triazolo[1,5-c]pyrimidin-1-yl)cyclohexyl]methyl}piperazin-2-one] | 0.97 | 0.024 | 0.048 | > 1 | 
2 | NC(=O)C1CCN(C[C@H]2CC[C@H](c3nnn4cnc5[nH]ccc5c34)CC2)CC1 [compound 261, 1-{[trans-4-(7H-pyrrolo[3,2-e][1,2,3]triazolo[1,5-c]pyrimidin-1-yl)cyclohexyl]methyl}piperidine-4-carboxamide] | 0.64 | 0.023 | 0.091 | > 1 | 
3 | N#Cc1ccc(NC[C@H]2CC[C@H](c3nnn4cnc5[nH]ccc5c34)CC2)cc1C#N [compound 262, 4-({[trans-4-(7H-pyrrolo[3,2-e][1,2,3]triazolo[1,5-c]pyrimidin-1-yl)cyclohexyl]methyl}amino)phthalonitrile] | 0.91 | 0.0047 | 0.045 | 0.59 | 
4 | N#Cc1cc(NC[C@H]2CC[C@H](c3nnn4cnc5[nH]ccc5c34)CC2)ccc1Cl [compound 263, 5-({[trans-4-(7H-pyrrolo[3,2-e][1,2,3]triazolo[1,5-c]pyrimidin-1-yl)cyclohexyl]methyl}amino)-2-chlorobenzonitrile] | > 1 | 0.027 | 0.22 | > 1 | 
5 | N#CCc1ccc(NC[C@H]2CC[C@H](c3nnn4cnc5[nH]ccc5c34)CC2)cc1 [compound 264, 2-[4-({[trans-4-(7H-pyrrolo[3,2-e][1,2,3]triazolo[1,5-c]pyrimidin-1-yl)cyclohexyl]methyl}amino)phenyl]acetonitrile] | > 1 | 0.011 | 0.032 | > 1 | 
6 | OC[C@H]1CCCN1C[C@H]1CC[C@H](c2nnn3cnc4[nH]ccc4c23)CC1 [compound 265, ((R)-1-{[trans-4-(7H-pyrrolo[3,2-e][1,2,3]triazolo[1,5-c]pyrimidin-1-yl)cyclohexyl]methyl}pyrrolidin-2-yl)methanol] | > 1 | 0.046 | 0.18 | > 1 | 
7 | OC[C@@H]1CCCN1C[C@H]1CC[C@H](c2nnn3cnc4[nH]ccc4c23)CC1 [compound 266, ((S)-1-{[trans-4-(7H-pyrrolo[3,2-e][1,2,3]triazolo[1,5-c]pyrimidin-1-yl)cyclohexyl]methyl}pyrrolidin-2-yl)methanol] | 0.35 | 0.025 | 0.11 | > 1 | 
8 | FC(F)(Br)CNC[C@H]1CC[C@H](c2nnn3cnc4[nH]ccc4c23)CC1 [compound 269, N-{[trans-4-(7H-pyrrolo[3,2-e][1,2,3]triazolo[1,5-c]pyrimidin-1-yl)cyclohexyl]methyl}-2-bromo-2,2-difluoroethanamine] | 0.1 | 0.0013 | 0.012 |  | 0.057
9 | COc1ccc(CNC[C@H]2CC[C@H](c3nnn4cnc5[nH]ccc5c34)CC2)cc1 [compound 270, 1-[trans-4-(7H-pyrrolo[3,2-e][1,2,3]triazolo[1,5-c]pyrimidin-1-yl)cyclohexyl]-N-(4-methoxybenzyl)methanamine] | 0.0048 | 0.012 | 0.1 | 0.75 | 
10 | OC1CCN(C[C@H]2CC[C@H](c3nnn4cnc5[nH]ccc5c34)CC2)CC1 [compound 271, 1-{[trans-4-(7H-pyrrolo[3,2-e][1,2,3]triazolo[1,5-c]pyrimidin-1-yl)cyclohexyl]methyl}piperidin-4-ol] | 0.43 | 0.02 | 0.063 | > 1 | 
11 | OCCNC[C@H]1CC[C@H](c2nnn3cnc4[nH]ccc4c23)CC1 [compound 272, 2-({[trans-4-(7H-pyrrolo[3,2-e][1,2,3]triazolo[1,5-c]pyrimidin-1-yl)cyclohexyl]methyl}amino)ethanol] | 0.094 | 0.0035 | 0.053 | 0.43 | 
12 | O=C1COc2cc(NC[C@H]3CC[C@H](c4nnn5cnc6[nH]ccc6c45)CC3)ccc2N1 [compound 273, 7-({[trans-4-(7H-pyrrolo[3,2-e][1,2,3]triazolo[1,5-c]pyrimidin-1-yl)cyclohexyl]methyl}amino)-2H-benzo[b][1,4]oxazin-3(4H)-one] | 0.24 | 0.0046 | 0.021 | 0.57 | 
13 | O=C1COc2ccc(NC[C@H]3CC[C@H](c4nnn5cnc6[nH]ccc6c45)CC3)cc2N1 [compound 274, 6-({[trans-4-(7H-pyrrolo[3,2-e][1,2,3]triazolo[1,5-c]pyrimidin-1-yl)cyclohexyl]methyl}amino)-2H-benzo[b][1,4]oxazin-3(4H)-one] | 0.2 | 0.0035 | 0.029 | > 1 | 
14 | FC1(F)Oc2ccc(NC[C@H]3CC[C@H](c4nnn5cnc6[nH]ccc6c45)CC3)cc2O1 [compound 275, N-{[trans-4-(7H-pyrrolo[3,2-e][1,2,3]triazolo[1,5-c]pyrimidin-1-yl)cyclohexyl]methyl}-2,2-difluorobenzo[d][1,3]dioxol-5-amine] | 0.52 | 0.0067 | 0.065 | 0.85 | 
15 | O=C(O)C1CN(C[C@H]2CC[C@H](c3nnn4cnc5[nH]ccc5c34)CC2)C1 [compound 278, 1-{[trans-4-(7H-pyrrolo[3,2-e][1,2,3]triazolo[1,5-c]pyrimidin-1-yl)cyclohexyl]methyl}azetidine-3-carboxylic acid] | 0.4 | 0.0043 | 0.034 | 0.45 | 
16 | O=C1OCCC1NC[C@H]1CC[C@H](c2nnn3cnc4[nH]ccc4c23)CC1 (stereo partly drawn) [compound 279, 3-({[trans-4-(7H-pyrrolo[3,2-e][1,2,3]triazolo[1,5-c]pyrimidin-1-yl)cyclohexyl]methyl}amino)dihydrofuran-2(3H)-one] | 0.2 | 0.0074 | 0.044 | 0.53 | 
17 | c1cc2c(ncn3nnc([C@H]4CC[C@H](CNC5CC5)CC4)c23)[nH]1 [compound 280, N-{[trans-4-(7H-pyrrolo[3,2-e][1,2,3]triazolo[1,5-c]pyrimidin-1-yl)cyclohexyl]methyl}cyclopropanamine] | 0.1 | 0.0019 | 0.062 | 0.68 | 
18 | N#CC1CN(C[C@H]2CC[C@H](c3nnn4cnc5[nH]ccc5c34)CC2)C1 [compound 281, 1-{[trans-4-(7H-pyrrolo[3,2-e][1,2,3]triazolo[1,5-c]pyrimidin-1-yl)cyclohexyl]methyl}azetidine-3-carbonitrile] | 0.48 | 0.0077 | 0.05 | 0.15 | 
19 | N#Cc1ccc(CCNC[C@H]2CC[C@H](c3nnn4cnc5[nH]ccc5c34)CC2)cc1 [compound 282, 4-[2-({[trans-4-(7H-pyrrolo[3,2-e][1,2,3]triazolo[1,5-c]pyrimidin-1-yl)cyclohexyl]methyl}amino)ethyl]benzonitrile] | 0.08 | 0.0052 | 0.07 | 0.39 | 
20 | c1cc2c(ncn3nnc([C@H]4CC[C@H](CNC5CCC5)CC4)c23)[nH]1 [compound 283, N-{[trans-4-(7H-pyrrolo[3,2-e][1,2,3]triazolo[1,5-c]pyrimidin-1-yl)cyclohexyl]methyl}cyclobutanamine] | 0.23 | 0.014 | 0.11 | 0.9 | 
